Test results taken from ChEMBL document CHEMBL3526057 (Drug Metab Dispos, 2011).

Assays:
Assay type in all cases: ADME
[1] = target: T1, Cytochrome P450 2C19 (Homo sapiens, UniProt P33261); experiment: Activity of human recombinant CYP2C19.1B mutant expressed in Saccharomyces cerevisiae BJ5457 assessed as omeprazole 5'-hydroxylation per pmol protein at 5 uM after 60 mins; settings: recombinant enzyme, 1 h
[2] = target: T2, Cytochrome P450 2C19 (Homo sapiens, UniProt P33261, E92D); experiment: Activity of human recombinant CYP2C19 E92D mutant expressed in Saccharomyces cerevisiae BJ5457 assessed as intrinisic clearance foromeprazole 5'-hydroxylation per pmol protein after 60 mins; settings: recombinant enzyme, 1 h
[3] = target: T3, Cytochrome P450 2C19 (Homo sapiens, UniProt P33261, R410C); experiment: Activity of human recombinant CYP2C19.13 mutant expressed in Saccharomyces cerevisiae BJ5457 assessed as omeprazole 5'-hydroxylation per pmol protein at 100 uM after 60 mins; settings: recombinant enzyme, 1 h
[4] = target: T1, Cytochrome P450 2C19; experiment: Activity of human recombinant CYP2C19.1A mutant expressed in Saccharomyces cerevisiae BJ5457 assessed as intrinisic clearance foromeprazole 5'-hydroxylation per pmol protein after 60 mins; settings: recombinant enzyme, 1 h
[5] = target: T1, Cytochrome P450 2C19; experiment: Activity of human recombinant CYP2C19.1A mutant expressed in Saccharomyces cerevisiae BJ5457 assessed as omeprazole 5'-hydroxylation per pmol protein at 100 uM after 60 mins; settings: recombinant enzyme, 1 h
[6] = target: Cytochrome P450 2C19 (Homo sapiens, UniProt P33261, M74T); experiment: Activity of human recombinant CYP2C19 M74T mutant expressed in Saccharomyces cerevisiae BJ5457 assessed as omeprazole 5'-hydroxylation per pmol protein at 5 uM after 60 mins; settings: recombinant enzyme, 1 h
[7] = target: T4, Cytochrome P450 2C19 (Homo sapiens, UniProt P33261, S51G); experiment: Activity of human recombinant CYP2C19.19 mutant expressed in Saccharomyces cerevisiae BJ5457 assessed asomeprazole 5'-hydroxylation per pmol protein after 60 mins; settings: recombinant enzyme, 1 h
[8] = target: T1, Cytochrome P450 2C19; experiment: Activity of human recombinant CYP2C19.1B mutant expressed in Saccharomyces cerevisiae BJ5457 assessed as intrinisic clearance foromeprazole 5'-hydroxylation per pmol protein after 60 mins; settings: recombinant enzyme, 1 h
[9] = target: T5, Cytochrome P450 2C19 (Homo sapiens, UniProt P33261, A161P); experiment: Activity of human recombinant CYP2C19 A161P mutant expressed in Saccharomyces cerevisiae BJ5457 assessed as intrinisic clearance foromeprazole 5'-hydroxylation per pmol protein after 60 mins; settings: recombinant enzyme, 1 h
[10] = target: Cytochrome P450 2C19 (Homo sapiens, UniProt P33261, I19L); experiment: Activity of human recombinant CYP2C19.15 mutant expressed in Saccharomyces cerevisiae BJ5457 assessed as omeprazole 5'-hydroxylation per pmol protein at 5 uM after 60 mins; settings: recombinant enzyme, 1 h
[11] = target: T1, Cytochrome P450 2C19; experiment: Activity of human recombinant CYP2C19.1B mutant expressed in Saccharomyces cerevisiae BJ5457 assessed as omeprazole 5'-hydroxylation per pmol protein at 100 uM after 60 mins; settings: recombinant enzyme, 1 h
[12] = target: T4, Cytochrome P450 2C19; experiment: Activity of human recombinant CYP2C19.19 mutant expressed in Saccharomyces cerevisiae BJ5457 assessed as omeprazole 5'-hydroxylation per pmol protein at 5 uM after 60 mins; settings: recombinant enzyme, 1 h
[13] = target: Cytochrome P450 2C19 (Homo sapiens, UniProt P33261, F168L); experiment: Activity of human recombinant CYP2C19 F168L mutant expressed in Saccharomyces cerevisiae BJ5457 assessed as omeprazole 5'-hydroxylation per pmol protein at 100 uM after 60 mins; settings: recombinant enzyme, 1 h
[14] = target: T6, Cytochrome P450 2C19 (Homo sapiens, UniProt P33261, P227L); experiment: Activity of human recombinant CYP2C19.10 mutant expressed in Saccharomyces cerevisiae BJ5457 assessed as omeprazole 5'-hydroxylation per pmol protein at 100 uM after 60 mins; settings: recombinant enzyme, 1 h
[15] = target: T3, Cytochrome P450 2C19; experiment: Activity of human recombinant CYP2C19.13 mutant expressed in Saccharomyces cerevisiae BJ5457 assessed as omeprazole 5'-hydroxylation per pmol protein at 5 uM after 60 mins; settings: recombinant enzyme, 1 h
[16] = target: T1, Cytochrome P450 2C19; experiment: Activity of human recombinant CYP2C19.8 mutant expressed in Saccharomyces cerevisiae BJ5457 assessed as omeprazole 5'-hydroxylation per pmol protein at 5 uM after 60 mins; settings: recombinant enzyme, 1 h
[17] = target: Cytochrome P450 2C19 (Homo sapiens, UniProt P33261, R144H); experiment: Activity of human recombinant CYP2C19.9 mutant expressed in Saccharomyces cerevisiae BJ5457 assessed as omeprazole 5'-hydroxylation per pmol protein at 5 uM after 60 mins; settings: recombinant enzyme, 1 h
[18] = target: T2, Cytochrome P450 2C19; experiment: Activity of human recombinant CYP2C19 E92D mutant expressed in Saccharomyces cerevisiae BJ5457 assessed as omeprazole 5'-hydroxylation per pmol protein at 100 uM after 60 mins; settings: recombinant enzyme, 1 h
[19] = target: Cytochrome P450 2C19 (Homo sapiens, UniProt P33261, D360N); experiment: Activity of human recombinant CYP2C19 D360N mutant expressed in Saccharomyces cerevisiae BJ5457 assessed asomeprazole 5'-hydroxylation after 60 mins; settings: recombinant enzyme, 1 h
[20] = target: T1, Cytochrome P450 2C19; experiment: Activity of human recombinant CYP2C19.1B mutant expressed in Saccharomyces cerevisiae BJ5457 assessed asomeprazole 5'-hydroxylation per pmol protein after 60 mins; settings: recombinant enzyme, 1 h
[21] = target: Cytochrome P450 2C19 (Homo sapiens, UniProt P33261, E122A); experiment: Activity of human recombinant CYP2C19 E122A mutant expressed in Saccharomyces cerevisiae BJ5457 assessed as omeprazole 5'-hydroxylation per pmol protein at 5 uM after 60 mins; settings: recombinant enzyme, 1 h
[22] = target: T1, Cytochrome P450 2C19; experiment: Activity of human recombinant CYP2C19.1A mutant expressed in Saccharomyces cerevisiae BJ5457 assessed as omeprazole 5'-hydroxylation per pmol protein at 5 uM after 60 mins; settings: recombinant enzyme, 1 h
[23] = target: Cytochrome P450 2C19 (Homo sapiens, UniProt P33261, R329H); experiment: Activity of human recombinant CYP2C19.18 mutant expressed in Saccharomyces cerevisiae BJ5457 assessed as omeprazole 5'-hydroxylation per pmol protein at 5 uM after 60 mins; settings: recombinant enzyme, 1 h
[24] = target: T5, Cytochrome P450 2C19; experiment: Activity of human recombinant CYP2C19 A161P mutant expressed in Saccharomyces cerevisiae BJ5457 assessed asomeprazole 5'-hydroxylation per pmol protein after 60 mins; settings: recombinant enzyme, 1 h
[25] = target: T5, Cytochrome P450 2C19; experiment: Activity of human recombinant CYP2C19 A161P mutant expressed in Saccharomyces cerevisiae BJ5457 assessed as omeprazole 5'-hydroxylation per pmol protein at 5 uM after 60 mins; settings: recombinant enzyme, 1 h
[26] = target: Cytochrome P450 2C19 (Homo sapiens, UniProt P33261, R433W); experiment: Activity of human recombinant CYP2C19.5B mutant expressed in Saccharomyces cerevisiae BJ5457 assessed as omeprazole 5'-hydroxylation per pmol protein at 100 uM after 60 mins; settings: recombinant enzyme, 1 h
[27] = target: T1, Cytochrome P450 2C19; experiment: Activity of human recombinant CYP2C19.8 mutant expressed in Saccharomyces cerevisiae BJ5457 assessed as omeprazole 5'-hydroxylation per pmol protein at 100 uM after 60 mins; settings: recombinant enzyme, 1 h
[28] = target: T6, Cytochrome P450 2C19; experiment: Activity of human recombinant CYP2C19.10 mutant expressed in Saccharomyces cerevisiae BJ5457 assessed asomeprazole 5'-hydroxylation per pmol protein after 60 mins; settings: recombinant enzyme, 1 h
[29] = Activity of human recombinant CYP2C19.6 mutant expressed in Saccharomyces cerevisiae BJ5457 assessed as omeprazole 5'-hydroxylation per pmol protein at 100 uM after 60 mins; settings: recombinant enzyme, 1 h
[30] = target: CYP2C19.19 (CYP2C19 variant) (Homo sapiens, UniProt P33261, S51G); experiment: Activity of human recombinant CYP2C19.19 mutant expressed in Saccharomyces cerevisiae BJ5457 assessed asomeprazole 5'-hydroxylation after 60 mins; settings: probe omeprazole (5'-hydroxylation)
[31] = target: T3, Cytochrome P450 2C19; experiment: Activity of human recombinant CYP2C19.13 mutant expressed in Saccharomyces cerevisiae BJ5457 assessed asomeprazole 5'-hydroxylation per pmol protein after 60 mins; settings: recombinant enzyme, 1 h

## COc1ccc2[nH]c([S+]([O-])Cc3ncc(C)c(OC)c3C)nc2c1 (stereo unspecified) [OMEPRAZOLE]
[1]
  Drug metabolism: 2.73 pmol/min
[2]
  CL: 0.79 µL/min
[3]
  Drug metabolism: 8.55 pmol/min
[4]
  CL: 1.49 µL/min
[5]
  Drug metabolism: 5.87 pmol/min
[6]
  Drug metabolism: 2.24 pmol/min
[7]
  Vmax: 9.59 pmol/min
[8]
  CL: 1.24 µL/min
[9]
  CL: 0.24 µL/min
[10]
  Drug metabolism: 3.41 pmol/min
[11]
  Drug metabolism: 5.36 pmol/min
[12]
  Drug metabolism: 2.82 pmol/min
[13]
  Drug metabolism: 5.48 pmol/min
[14]
  Drug metabolism: 5 pmol/min
[15]
  Drug metabolism: 3.03 pmol/min
[16]
  Drug metabolism: metabolite_not_detected
[17]
  Drug metabolism: 1.95 pmol/min
[18]
  Drug metabolism: 7.02 pmol/min
[19]
  Km: 7.81 µM
[20]
  Vmax: 5.12 pmol/min
[21]
  Drug metabolism: 1.58 pmol/min
[22]
  Drug metabolism: 2.75 pmol/min
[23]
  Drug metabolism: 2.21 pmol/min
[24]
  Vmax: 1.61 pmol/min
[25]
  Drug metabolism: 0.65 pmol/min
[26]
  Drug metabolism: metabolite_not_detected
[27]
  Drug metabolism: 0.72 pmol/min
[28]
  Vmax: 5.35 pmol/min
[29]
  Drug metabolism: metabolite_not_detected
[30]
  Km at 1 h: 14.5 µM
[31]
  Vmax: 7.83 pmol/min
